Measurements published in patent US9211310B2, “Use of a Chinese medicine composition in preparing medicaments for treating secondary prevention of myocardial infarction” (TASLY PHARMACEUTICAL GROUP CO., LTD, priority 2010, dated 2015).

System: patients after acute myocardial infarction
Test: Life quality, Seattle Angina Questionnaire (SAQ), same clinical trial
Type: in vivo, human
Conditions: PP
Source text: 3508 patients who were in accordance with the diagnostic standards of AMI for 28 days to 2 years and differentiated as Qi deficiency and blood stagnation syndrome by TCM were studied. 0.5 g Chinese medicine composition prepared by the method of EXAMPLE 1 (Coded as QSYQ) was administrated half an hour after meal, 3 times per day.
There were 19 questions in the Seattle angina questionnaire (SAQ), including 5 parts: physical limitation (PL), anginal stability (AS), anginal frequency (AF), treatment satisfaction (TS) and disease perception (DP). After being given necessary explanation by doctors, the questions were answered independently by patients.
They included the overall survival time, angina pectoris score, TCM symptom score and life quality score, where angina pectoris score, TCM symptom score and life quality score were evaluated at randomization, in 1st, 3rd, 6th, 9th, 12th month after treatment and 18th month after follow-up.
All evaluation results of SAQ were described during the period of observation, and Wilcoxon rank sum test was used for inter-group comparison.
The evaluation results in the SAQ were depicted in different observations, and inter-group comparison was tested by Wilcoxon Rank-sum test.

[1] = Follow-up, second line headed Not limited (r60)

## CC(=O)Oc1ccccc1C(=O)O [Control group, aspirine]
Baseline
  SAQ 7th question, Highly satisfied: % of patients: (20.32%)
  SAQ 7th question, Highly satisfied: number of patients: 304
  SAQ 7th question, Mostly dissatisfied: % of patients: (4.88%)
  SAQ 7th question, Mostly dissatisfied: number of patients: 73
  SAQ 7th question, Mostly satisfied: % of patients: (46.52%)
  SAQ 7th question, Mostly satisfied: number of patients: 696
  SAQ 7th question, Partly satisfied: % of patients: (27.94%)
  SAQ 7th question, Partly satisfied: number of patients: 418
  SAQ Question 1-1 Mildly limited, number of patients: 30
  SAQ Question 1-1 Mildly limited, percent of patients: (2.01%)
  SAQ Question 1-1 Moderately limited, number of patients: 13
  SAQ Question 1-1 Moderately limited, percent of patients: (0.87%)
  SAQ Question 1-1 Not limited, number of patients: 1359
  SAQ Question 1-1 Not limited, percent of patients: (90.96%)
  SAQ Question 1-1 Other reasons, number of patients: 4
  SAQ Question 1-1 Other reasons, percent of patients: (0.27%)
  SAQ Question 1-1 Severely limited, number of patients: 1
  SAQ Question 1-1 Severely limited, percent of patients: (0.07%)
  SAQ Question 1-1 Slightly limited, number of patients: 87
  SAQ Question 1-1 Slightly limited, percent of patients: (5.82%)
  SAQ Question 1-2 Mildly limited, number of patients: 42
  SAQ Question 1-2 Mildly limited, percent of patients: (2.81%)
  SAQ Question 1-2 Moderately limited, number of patients: 13
  SAQ Question 1-2 Moderately limited, percent of patients: (0.87%)
  SAQ Question 1-2 Not limited, number of patients: 1319
  SAQ Question 1-2 Not limited, percent of patients: (88.29%)
  SAQ Question 1-2 Other reasons, number of patients: 5
  SAQ Question 1-2 Other reasons, percent of patients: (0.33%)
  SAQ Question 1-2 Severely limited, number of patients: 2
  SAQ Question 1-2 Severely limited, percent of patients: (0.13%)
  SAQ Question 1-2 Slightly limited, percent of patients: (7.56%)
  SAQ Question 1-6: Mildly limited, patients (%): (20.58%)
  SAQ Question 1-6: Moderately limited, patients (%): (18.43%)
  SAQ Question 1-6: Not limited, patients (%): (25.02%)
  SAQ Question 1-6: Other reasons, patients (%): (1.01%)
  SAQ Question 1-6: Severely limited, patients (%): (6.99%)
  SAQ Question 1-6: Slightly limited, patients (%): (27.98%)
  SAQ Question 1-7: Mildly limited, patients (%): (25.03%)
  SAQ Question 1-7: Moderately limited, patients (%): (19.44%)
  SAQ Question 1-7: Not limited, patients (%): (9.62%)
  SAQ Question 1-7: Other reasons, patients (%): (3.14%)
  SAQ Question 1-7: Severely limited, patients (%): (21.49%)
  SAQ Question 1-7: Slightly limited, patients (%): (21.28%)
  SAQ Question 1-8: Mildly limited, patients (%): (24.40%)
  SAQ Question 1-8: Moderately limited, patients (%): (22.43%)
  SAQ Question 1-8: Not limited, patients (%): (7.43%)
  SAQ Question 1-8: Other reasons, patients (%): (2.52%)
  SAQ Question 1-8: Severely limited, patients (%): (26.45%)
  SAQ Question 1-8: Slightly limited, patients (%): (16.77%)
Follow-up
  8th question: Dissatisfied, patients (%): (0.07%)
  8th question: Highly satisfied, patients (%): (28.16%)
  8th question: Mostly dissatisfied, patients (%): (0.64%)
  8th question: Mostly satisfied, patients (%): (60.27%)
  8th question: Partly satisfied, patients (%): (10.87%)
  9th question: Few, patients (%): (44.23%)
  9th question: Mild, patients (%): (27.32%)
  9th question: Moderate, patients (%): (3.87%)
  9th question: Severe, patients (%): (0.14%)
  9th question: Uneffective, patients (%): (24.44%)
  10th question: Dissatisfied, patients (%): (18.11%)
  10th question: Highly satisfied, patients (%): (9.51%)
  10th question: Mostly dissatisfied, patients (%): (19.38%)
  10th question: Mostly satisfied, patients (%): (32.21%)
  10th question: Partly satisfied, patients (%): (20.79%)
  11th question: Continuously worried, patients (%): (1.34%)
  11th question: No worried, patients (%): (8.74%)
  11th question: Occasionally worried, patients (%): (38.83%)
  11th question: Often worried, patients (%): (6.84%)
  11th question: Seldom worried, patients (%): (44.26%)
  SAQ 4th question, 1-2 times per week: % of patients: (13.17%)
  SAQ 4th question, 1-2 times per week: number of patients: 186
  SAQ 4th question, 1-3 times per week: % of patients: (2.83%)
  SAQ 4th question, 1-3 times per week: number of patients: 40
  SAQ 4th question, <1 time per week: % of patients: (16.08%)
  SAQ 4th question, <1 time per week: number of patients: 227
  SAQ 4th question, Not used: % of patients: (66.08%)
  SAQ 4th question, Not used: number of patients: 933
  SAQ 4th question, ≧3 times per week: % of patients: (1.84%)
  SAQ 4th question, ≧3 times per week: number of patients: 26
  SAQ 4th question, ≧4 times per day: % of patients: (0.00%)
  SAQ 4th question, ≧4 times per day: number of patients: 0
  SAQ 5th question, 1-2 times per week: % of patients: (32.86%)
  SAQ 5th question, 1-2 times per week: number of patients: 465
  SAQ 5th question, 1-3 times per day: % of patients: (3.18%)
  SAQ 5th question, 1-3 times per day: number of patients: 45
  SAQ 5th question, <1 time per week: % of patients: (31.24%)
  SAQ 5th question, <1 time per week: number of patients: 442
  SAQ 5th question, No onset: % of patients: (7.49%)
  SAQ 5th question, No onset: number of patients: 106
  SAQ 5th question, ≧3 times per week: % of patients: (25.09%)
  SAQ 5th question, ≧3 times per week: number of patients: 355
  SAQ 5th question, ≧4 times per day: % of patients: (0.14%)
  SAQ 5th question, ≧4 times per day: number of patients: 2
  SAQ 6th question, Dissatisfied: % of patients: (0.00%)
  SAQ 6th question, Dissatisfied: number of patients: 0
  SAQ 6th question, Highly satisfied: % of patients: (28.52%)
  SAQ 6th question, Highly satisfied: number of patients: 405
  SAQ 6th question, Mostly dissatisfied: % of patients: (0.63%)
  SAQ 6th question, Mostly dissatisfied: number of patients: 9
  SAQ 6th question, Mostly satisfied: % of patients: (62.25%)
  SAQ 6th question, Mostly satisfied: number of patients: 884
  SAQ 6th question, Partly satisfied: % of patients: (8.59%)
  SAQ 6th question, Partly satisfied: number of patients: 122
  SAQ 7th question, Dissatisfied: % of patients: (0.00%)
  SAQ 7th question, Dissatisfied: number of patients: 0
  SAQ 7th question, Highly satisfied: % of patients: (30.75%)
  SAQ 7th question, Highly satisfied: number of patients: 436
  SAQ 7th question, Mostly dissatisfied: % of patients: (0.28%)
  SAQ 7th question, Mostly dissatisfied: number of patients: 4
  SAQ 7th question, Mostly satisfied: % of patients: (62.13%)
  SAQ 7th question, Mostly satisfied: number of patients: 881
  SAQ 7th question, Partly satisfied: % of patients: (6.84%)
  SAQ 7th question, Partly satisfied: number of patients: 97
  SAQ Question 1-1 Mildly limited, number of patients: 6
  SAQ Question 1-1 Mildly limited, percent of patients: (0.43%)
  SAQ Question 1-1 Moderately limited, number of patients: 1
  SAQ Question 1-1 Moderately limited, percent of patients: (0.07%)
  SAQ Question 1-1 Not limited, number of patients: 1352
  SAQ Question 1-1 Not limited, percent of patients: (95.95%)
  SAQ Question 1-1 Other reasons, number of patients: 5
  SAQ Question 1-1 Other reasons, percent of patients: (0.35%)
  SAQ Question 1-1 Severely limited, number of patients: 1
  SAQ Question 1-1 Severely limited, percent of patients: (0.07%)
  SAQ Question 1-1 Slightly limited, number of patients: 44
  SAQ Question 1-1 Slightly limited, percent of patients: (3.12%)
  SAQ Question 1-2 Mildly limited, number of patients: 8
  SAQ Question 1-2 Mildly limited, percent of patients: (0.57%)
  SAQ Question 1-2 Moderately limited, number of patients: 0
  SAQ Question 1-2 Moderately limited, percent of patients: (0.00%)
  SAQ Question 1-2 Not limited, number of patients: 1336
  SAQ Question 1-2 Not limited, percent of patients: (94.82%)
  SAQ Question 1-2 Severely limited, number of patients: 2
  SAQ Question 1-2 Severely limited, percent of patients: (0.14%)
  SAQ Question 1-2 Slightly limited, number of patients: 56
  SAQ Question 1-2 Slightly limited, percent of patients: (3.97%)
  SAQ Question 1-6: Mildly limited, patients (%): (11.32%)
  SAQ Question 1-6: Moderately limited, patients (%): (9.19%)
  SAQ Question 1-6: Not limited, patients (%): (41.95%)
  SAQ Question 1-6: Other reasons, patients (%): (0.85%)
  SAQ Question 1-6: Severely limited, patients (%): (2.28%)
  SAQ Question 1-6: Slightly limited, patients (%): (34.40%)
  SAQ Question 1-7: Mildly limited, patients (%): (21.92%)
  SAQ Question 1-7: Moderately limited, patients (%): (6.63%)
  SAQ Question 1-7: Not limited, patients (%): (22.35%)
  SAQ Question 1-7: Other reasons, patients (%): (2.60%)
  SAQ Question 1-7: Severely limited, patients (%): (11.68%)
  SAQ Question 1-7: Slightly limited, patients (%): (34.82%)
  SAQ Question 1-8: Mildly limited, patients (%): (24.93%)
  SAQ Question 1-8: Moderately limited, patients (%): (11.85%)
  SAQ Question 1-8: Not limited, patients (%): (15.12%)
  SAQ Question 1-8: Other reasons, patients (%): (3.27%)
  SAQ Question 1-8: Severely limited, patients (%): (14.75%)
  SAQ Question 1-8: Slightly limited, patients (%): (30.09%)
[1]
  SAQ Question 1-2 Not limited, number of patients: 7
  SAQ Question 1-2 Not limited, percent of patients: (0.50%)
